From US7312323B2, “Enzymes and polynucleotides encoding the same” (The Horticulture and Food Research Institute of New Zealand …, priority 2002, dated 2007)

Experiments:
[1] = target: Germacrene D synthase (Actinidia deliciosa, UniProt Q32W37); assay: Kinetic studies with 3H-FDP, pentane overlay scintillation assay; type: biochemical; details: for effect of added ions on activity: 50 mM KCl or NaCl; for inhibition at high concentrations of the chloride salts: >5 mM and 10 mM of the respective Mg2+ and Mn2+ chloride salts
Description: Optimisation of large-scale production of protein and protein kinetics: E. coli BL21-PlusTM-RIL cells harbouring pET-30a75565 were grown overnight at 37° C. in Lauria-Bertani media supplemented with 30 μg ml^-1 kanamycin and 34 μg ml chloramphenicol^-1. 5 mL aliquots of overnight culture were used to inoculate 4×300 mL of fresh 2× YT medium supplemented with 30 μg ml^-1 […] 34 μg ml^-1 chloramphenicol in 1 L baffled flasks. Cultures were grown at 37° C. with vigorous agitation to A600=0.8, then removed to 4° C. to equilibrate to 16° C. before induction with 0.3 mM IPTG. Induced cultures were then incubated at 16° C. and 220 rpm for a further 72 hours. Cells were pelleted by centrifugation (2500×g; 10 min) and stored overnight at -20° C. The following day cell pellets were resuspended in 20 mL His6 binding buffer and cells were disrupted by 2 passes through an EmulsiFlex®-C15 high-pressure homogeniser (Avestin) with a pressure setting between 15000-20000 psi. Cell debris was pelleted by centrifugation 2× at 10000×g for 15 min; 4° C. (Sorval SS34 rotor). […] Filtered extract was desalted and passed over a Nickel affinity column. Concentration of the recombinant synthase in the purified protein extracts was estimated from SDS-PAGE gels by comparing against a BenchMarkTM Protein Ladder (Invitrogen). Purified extracts were adjusted to a workable concentration with His6 elution buffer (without Imidazole) containing 10% glycerol and 1 mM DTT. The extract was then separated into 100 μl aliquots and stored at -80° C. until required. […] Kinetic Studies: […] Tritiated FDP was added variously depending on the experiment. One mL assays containing 100-150 ng of the recombinant synthase were overlaid with 0.6 mL pentane and incubated in 1.5 mL microfuge tubes for 2 hours at 30° C. and 150 rpm. All assays were performed in triplicate. Following incubation assays were immediately placed on ice and a 200 μL aliquot of the pentane layer removed for analysis. The aliquots were added to 1.5 mL microfuge tubes containing 0.7 mL Organic Counting Scintillant (OCS) (Amersham) and vortexed briefly. Scintillation analysis was performed using a Wallac 1409 Liquid Scintillation Counter (^3H efficiency≈70%). […] The effect on enzyme activity of metal co-factors with and without salts was also tested. Mg^2+ and Mn^2+ were added in the presence and absence of 50 mM KCL and 50 mM NaCl in all possible combinations. Controls included incubation without enzyme, with enzyme but without metal ion cofactors and with enzyme and cofactors in the presence of 10 mM EDTA. A further control comprising His6 purified pET-30a extract was also assayed to determine potential utilisation of FDP by co-purifying bacterial proteins. […] Kinetic constants were determined from the DPM data by nonlinear regression using the Origin50 graphics package.

[2] = Thermal rearrangement, pentane extracts from purified protein injected at different port temperatures; type: physicochemical
Description: Dynamic headspace methods were also used to collect the headspace volatiles from the purified extracts on to 100 mg Chromosorb 105 adsorbent traps. The protein was placed into 50 mL Quickfit® test tubes, which were fitted with a headspace adaptor with an air inlet and outlet. Volatiles were collected onto the Chromosorb 105 adsorbent traps, which were fitted to the air outlet port of each adaptor. The volatiles were purged from the vessel onto the traps with clean air at 50 mL min^−1 for 18 hours. The traps were stored at −15° C. for up to one week, and then subjected to GC-FIDIMS analysis. Finally, pentane extracts were taken from the purified extracts. An aliquot (2.5 ml) of pentane was added to the purified extracts and was left to extract for 18 hours. The pentane was removed and then concentrated with a stream of N2 gas. This was then injected onto the GC-MS at 150° C.
More light can be shed on the possibility of rearrangement of the products using pentane extraction.
In an experiment to test for thermal rearrangement, injections of pentane extract from purified protein were made at temperatures of 125, 150 and 210° C.; or pentane extract from Actinidia flowers were made at temperatures of 100, 125, 150 and 210° C. […] Germacrene B modulated slightly in response to temperature shifts although no gamma-elemene was found as might be predicted. In addition the predicted precursor for delta elemene—germacrene C (Feger et al., Flavour and Fragrance Journal 15: 170-173 (2000)) was not detected at any time. Germacrene A was also not detected at any time. […] Elemol may arise from further rearrangements of delta-elemene or from other elemene sources or from hedycaryol (Chamblee et al., J. Essent. Oil Res. 9: 127-132 (1997)). No GC-MS traces in any experiments indicated evidence for germacrene-C or for hedycaryol.

[3] = Thermal rearrangement, pentane extracts from Actinidia flowers injected at different port temperatures; type: physicochemical
Description: Whole flowers of the same plants were also harvested at anthesis in 2000. 18.6 g and 21 g of flowers from a mixture of developmental stages were placed in 2× Quickfit® Erlenmeyer flasks as above. Volatiles were collected onto a Chromosorb adsorbent trap in duplicate, after the system had been equilibrated for 30 min at room temperature (ca. 23° C.), by purging onto the trap with clean air at 25 mL min^−1 for 60 minutes. The trap was stored at −15° C. for one week and then analysed by GC-FD/MS. The same petals (1.99 g) were then extracted with pentane-ether (2 ml) and stored at −20° C. until analysed. The pentane (GPR, BDH) had been purified by distillation and by passing through a column of activated alumina. Pentane extracts were reduced by rotary evaporation and were dried by passing through a small column of anhydrous MgSO4 before the volume was reduced to ca. 50 μL under a gentle stream of nitrogen. The extract was analysed by GC-FID/MS.
GC-MS Analysis of dynamic headspace samples and pentane extracts: Volatile compounds were thermally desorbed from the headspace traps at 150° C. and were cryo-focussed at the beginning of the GC column (Young, 1981). The column outlet was split between the GC (Hewlett Packard 5890) FID detector (for quantitation) and VG-70SE (VG-Micromass, Manchester, U.K.) mass spectrometer (for component identification) with an electron impact ionisation of 70 eV. Separations were carried out in a 30 m×0.32 mm i.d., 0.5 μn DBWax capillary column (J & W Scientific, Folsom, USA), starting at 30° C. for 6 min, increasing by 3° C. min^−1 to 102° C., 5° C. min^−1 to 210° C. and held for 5 min. Injector temperature was 210° C. The carrier gas was He at a flow rate of ˜30 cm s^−1, and the FID and mass spectrometer transfer line were at 210° C. Quantification of compounds was carried out using an average detector response based on methyl butanoate, ethyl butanoate, hexanol and methyl benzoate. Components were identified by comparison with spectra in the mass spectral database (NIST 1998, Wiley 7 and an in-house database), retention indices (in-house database) and in some cases direct GC-MS comparison with authentic standards. Separations for the earlier 2000 samples were carried out in the same manner as above except the programme started at 30° C. for 6 min, increasing by 3° C. min^−1 to 102° C., 5° C. min^−1 to 190° C. and held for 5 min. Analysis of the pentane extract used a programme of 2 min at 40° C., 5° C. min^−1 to 200° C., 15° C. m^−1 to 240° C. and held for 20 min. For genotype 32-10-07a: the GC-MS was programmed to start at 30° C. for 2 min, increasing by 3° C. min^−1 to 50° C., 5° C. min^−1 to 130° C., 10° C. min^−1 to 240° C. and held for 2 min. Injector temperature was 240° C.
In an experiment to test for thermal rearrangement, injections of pentane extract from purified protein were made at temperatures of 125, 150 and 210° C.; or pentane extract from Actinidia flowers were made at temperatures of 100, 125, 150 and 210° C.

[4] = test system: house dust mites; details: Chang et al. 2001; cited from earlier work
[5] = test system: other sesquiterpene synthases; details: read-out: Km in the literature; cited from earlier work
[6] = injection port temperature 125 °C
[7] = injection port temperature 150 °C
[8] = injection port temperature 210 °C

## [K+] [K^+]
[1]
  effect of added ions on activity: little or no effect

## C=C[C@]1(C)CC[C@@H](C(C)(C)O)C[C@H]1C(=C)C [Elemol]
[2]; [6]
  Peak Area: ca. 9 × 10^4^
[2]; [7]
  Peak Area: ca. 1.4 × 10^5^
[2]; [8]
  Peak Area: 5.75 × 10^6
[3]; [7]
  Peak Area: ca. 8.4 × 10^6
[3]; [8]
  Peak Area: 3.78 × 10^7

## CC1=C[C@@H]2[C@@H](CC1)[C@](C)(O)CC[C@H]2C(C)C [Alpha-cadinol]
[4]
  miticidal activity: potent miticide

## [Na+] [Na^+]
[1]
  effect of added ions on activity: little or no effect

## CC(C)=CCC/C(C)=C/CC/C(C)=C/CO[P@@](=O)(O)OP(=O)(O)O (stereo in doubt) [FDP, farnesyl diphosphate]
[1]; saturating Mg2+, pH 7.5, 30 °C
  Km: 1000 to 2000 nM

## CC(C)=CCC/C(C)=C/CC/C(C)=C/COP(=O)(O)OP(=O)(O)O [FDP, farnesyl diphosphate]
[1]
  saturating concentration of FDP: ~7.5 µM
[1]; 1 mM substrate concentration
  inhibition by substrate: ~50%
[5]
  Km: 0.4 to 4.5 µM

## C=C[C@@]1(C)CCC(C(C)C)=C[C@@H]1C(=C)C [δ-Elemene]
[2]; [8]
  Peak Area: 9.05 × 10^5
[3]; [7]
  Peak Area: ca. 5.7 × 10^5
[3]; [8]
  Peak Area: 4.14 × 10^6

## [Mg+2] [Mg^2+]
[1]
  inhibition at high concentrations of the chloride salts: No significant inhibition
[5]
  Km: 70 to 150 µM

## CC(C)=C1C/C=C(\C)CC/C=C(\C)CC1 [Germacrene B]
[2]; [6]
  Peak Area: 7.57 × 10^5
[2]; [7]
  Peak Area: 8.58 × 10^5
[2]; [8]
  Peak Area: 5.87 × 10^5
[3]; injection port temperature 100 °C
  Peak Area: 5.0 × 10^6
[3]; [6]
  Peak Area: 7.40 × 10^6
[3]; [7]
  Peak Area: 1.0 × 10^7
[3]; [8]
  Peak Area: 3.92 × 10^6

## [Mn+2] [Mn^2+]
[1]
  Vrel with Mn2+ as cofactor relative to Mg2+: ~27%
  effect of Mn in the buffer when Mg2+ present: inhibition of activity
  inhibition at high concentrations of the chloride salts: No significant inhibition
[5]
  Km: 7 to 30 µM

B1: Germacrene D synthase: recombinant His6-tagged sesquiterpene synthase from Actinidia deliciosa petals, SEQ ID NO:2 (protein, listed as Actinidia deliciosa)
chain: MQLPCAQALPIPTVTTTTSIEPPHVTRRSANYHPSIWGDHFLAYSSDAMEEEVINMEQQQRLHHLKQKVRKMLEAAAEQSSQMLNLVDKIQRLGVSYHFETEIETALRHIYKTCDYHFDDLHTAALSFRLLRQQGYPVSCDMFDKFKNSKGEFQESIISDVQGMLSLYEATCLRIHGEDILDEALAFTITQLRSALPNLSTPFKEQIIHALNQPIHKGLTRLNARSHILFFEQNDCHSKDLLNFAKLDFNLLQKLHQRELCEITRWWKDLNFAKTLPFARDRMVECYFWILGVYFEPQYLLARRMLTKVIAMISIIDDIYDVYGTLEELVLFTDAIERWEISALDQLPEYMKLCYQALLDVYSMIDEEMAKQGRSYCVDYAKSSMKILVRAYFEEAKWFHQGYVPTMEEYMQVALVTAGYKMLATSSFVGMGDLATKEAFDWVSNDPLIVQAASVIGRLKDDIVGHKFEQKRGHVASAVECYSKQHGTTEEEAIIELDKQVTHSWKDINAECLCPIKVPMPLLARVLNLARVLYVIYQDEDGYTHPGTKVENFVTSVLIDSMPIN
modifications: His6 tag
[1]; 0.5 pH units lower than 7.5
  decrease in enzyme activity: 47%
[1]; 1 pH unit higher than 7.5
  decrease in enzyme activity: 59%
[1]; 16 °C
  activity relative to optimal temperature activity: ~56%
[1]; 50 °C
  activity at high temperature: Little or no activity
[1]; optimal conditions, without DTT
  Vrel in the absence of DTT: ~53%
[1]; range 16-50 °C, 10 mM MgCl2, 10 μM FDP
  temperature of maximum synthase activity: 30 °C
[1]; tri-buffer system pH 5.7-9.5, 10 mM MgCl2, 10 μM FDP
  pH optimum: 7.5
